# Marks after values point to notes of the source that are not given here.
# Columns and labels:
# [1] = system: Puccinia recondita f. sp. tritici; assay: Test K: wheat leaf rust, preventive spray on wheat seedlings
# Rhizoctonia oryzae = assay: Test G: turf brown patch, preventive spray on creeping bent grass seedlings
# Protocol: (the causal agent of turf brown patch) and incubated in a saturated atmosphere at 27° C. for 24 h, and then moved to a growth chamber at 27° C. for 5 days, after which disease ratings were made.
# [2] = system: Erysiphe graminis f. sp. tritici; assay: Test L: wheat powdery mildew, preventive spray on wheat seedlings
# [3] = system: Colletotrichum orbiculare; assay: Test B: cucumber Colletotrichum anthracnose, preventive spray on cucumber seedlings
# fusarium graminearium = assay: Test I: wheat head scab, preventive spray on wheat seedlings; conditions: for Test I disease control rating: 200 ppm
# Protocol: (the causal agent of wheat head scab) and incubated in a saturated atmosphere at 20° C. for 72 h, and then moved to a growth chamber at 22° C. for 5 days, after which disease ratings were made.
# Botrytis cinerea = assay: Test E: tomato botrytis, preventive spray on tomato seedlings
# Septoria tritici = assay: Test J: wheat leaf blotch, preventive spray on wheat seedlings; type: in vivo
# Excerpt: A dash (-) indicates no test results.
# Septoria nodorum = assay: Test H: wheat glum blotch, preventive spray on wheat seedlings
# Protocol: (the causal agent of wheat glum blotch) and incubated in a saturated atmosphere at 20° C. for 48 h, and then moved to a growth chamber at 22° C. for 5 days, after which disease ratings were made.
# Plasmopara viticola = assay: Test D: grape downy mildew, spray after inoculation of grape seedlings; type: in vivo; conditions: 200 ppm
# Excerpt: Upon removal, disease ratings were made. […] A dash (-) indicates no test results.
# Pythium aphanidermatum = assay: Test A: bluegrass pythium blight, preventive spray on bluegrass seedlings; conditions: for Test A disease control rating: 200 ppm
# Phytophthora infestans = assay: whole plant or invertebrate; type: in vivo; conditions: for Test F disease control rating: 200 ppm
Structure (SMILES),Test K disease control rating ([1]; 200 ppm) [%],Test G disease control rating (Rhizoctonia oryzae; 200 ppm) [%],Test L disease control rating ([2]; 200 ppm) [%],Test B disease control rating ([3]; 200 ppm) [%],Test I disease control rating (fusarium graminearium) [%],Test E disease control rating (Botrytis cinerea; 200 ppm) [%],Test J disease control rating (Septoria tritici; 200 ppm) [%],Test H disease control rating (Septoria nodorum; 200 ppm) [%],Test D disease control rating (Plasmopara viticola) [%],Test A disease control rating (Pythium aphanidermatum) [%],Test F disease control rating (Phytophthora infestans) [%],also measured
"CCC(C)c1c(Cl)nc(-n2cccn2)c(=O)n1CC(C)C (centres unmarked) [Compound 424, 5-Chloro-6-(1-methylpropyl)-1-(2-methylpropyl)-3-(1H-pyrazol-1-yl)-2(1H)-pyrazinone]",–,–,–,–,–,–,–,–,–,–,–,"pest or weed control at 200 ppm ([1]; Puccinia recondita, in Triticum aestivum, 192 h, read-out: Test K disease control rating): 100%; pest or weed control at 200 ppm (Rhizoctonia oryzae; Waitea circinata, in Agrostis stolonifera, topical, 144 h, read-out: Test G disease control rating, 200 ppm, 100 = 100% disease control, 0 = no control relative to controls): 99%; pest or weed control at 200 ppm ([2]; Blumeria graminis, in Triticum aestivum, 168 h, read-out: Test L disease control rating, 200 ppm, 100 = 100% disease control, 0 = no control relative to controls): 100%; pest or weed control at 200 ppm ([3]; Colletotrichum orbiculare, in Cucumis sativus, 144 h, read-out: Test B disease control rating, 200 ppm, 100 = 100% disease control, 0 = no control relative to controls): 0%; pest or weed control at 200 ppm (fusarium graminearium; Fusarium, in Triticum aestivum, topical, 192 h, read-out: Test I disease control rating, 200 ppm, 100 = 100% disease control, 0 = no control relative to controls): 0%; pest or weed control at 200 ppm (Botrytis cinerea; Botrytis cinerea, in Solanum lycopersicum, topical, 72 h, read-out: Test E disease control rating): 96%; pest or weed control at 40 ppm (Septoria tritici; Zymoseptoria tritici, 528 h, 40 ppm (marked *), 100 = 100% disease control, 0 = no control, read-out: Test J disease control rating): 37%; pest or weed control at 200 ppm (Septoria nodorum; Parastagonospora nodorum, in Triticum aestivum, topical, 168 h, read-out: Test H disease control rating, 200 ppm, 100 = 100% disease control, 0 = no control relative to controls): 0%; pest or weed control at 200 ppm (Plasmopara viticola; Plasmopara viticola, 168 h, 100 = 100% disease control, 0 = no control relative to controls, read-out: Test D disease control rating): 0%; pest or weed control at 200 ppm (Pythium aphanidermatum; Pythium aphanidermatum, 120 h, read-out: Test A disease control rating): 0%; pest or weed control at 200 ppm (Phytophthora infestans; Phytophthora infestans, in Solanum lycopersicum, topical, 144 h, read-out: Test F disease control rating): 0%"
O=c1c(-n2cncn2)nc(Cl)c(-c2c(F)cccc2F)n1CC1CC1 [compound 17],100,99,99,0,94,100,87,100,54,0,0,–
CC(C)Cn1c(-c2ccc(Cl)cc2)c(Cl)nc(-n2cccn2)c1=O [compound 22],79,0,0,0,0,100,98,0,0,0,0,–
CCCC(C)n1c(-c2c(F)cccc2F)c(Cl)nc(-n2cccn2)c1=O (centres unmarked) [compound 25],100,100,100,100,0,99,100,100,0,0,0,–
CC(C)n1c(-c2c(F)cccc2F)c(Cl)nc(-n2cccn2)c1=O [compound 26],100,92,100,99,0,100,96,100,16,0,0,–
CCCn1c(-c2c(F)cccc2F)c(Cl)nc(-n2cccn2)c1=O [compound 27],100,67,100,99,0,100,100,100,47,0,0,–
CCCCCn1c(-c2c(F)cccc2F)c(Cl)nc(-n2cccn2)c1=O [compound 28],97,31,97,98,0,92,100,99,0,0,0,–
CC(C)C(C)n1c(-c2c(F)cccc2F)c(Cl)nc(-n2cccn2)c1=O (centres unmarked) [compound 29],100,95,98,99,0,80,100,99,0,0,0,–
C=C(C)Cn1c(-c2c(F)cccc2F)c(Cl)nc(-n2cccn2)c1=O [compound 30],100,98,100,99,0,99,100,100,0,0,0,–
O=c1c(-n2cccn2)nc(Cl)c(-c2c(F)cccc2F)n1CC1CCCCC1 [compound 31],88,0,69,0,0,97,100,73,0,0,0,–
CCC(C)Cn1c(-c2c(F)cccc2F)c(Cl)nc(-n2ccnn2)c1=O (centres unmarked) [compound 60],–,–,–,–,0,–,–,–,0,0,0,Test K disease control rating ([1]; 40 ppm (*)): 68* %; Test G disease control rating (Rhizoctonia oryzae; 40 ppm (*)): 0* %; Test L disease control rating ([2]; 40 ppm (*)): 0* %; Test B disease control rating ([3]; 40 ppm (*)): 0* %; Test E disease control rating (Botrytis cinerea; 40 ppm (*)): 95* %; Test J disease control rating (Septoria tritici; 40 ppm (*)): 40* %; Test H disease control rating (Septoria nodorum; 40 ppm (*)): 0* %
CCC(C)Cn1c(-c2c(F)cccc2F)c(Cl)nc(-n2ccnc2)c1=O (centres unmarked) [compound 61],0,0,0,0,0,0,40,0,0,0,0,–
CCC(C)Cn1c(-c2c(F)cccc2F)c(Cl)nc(-n2nc(C)cc2C)c1=O (centres unmarked) [compound 62],83,0,0,0,0,31,15,0,0,0,0,–
CCC(C)Cn1c(-c2c(F)cccc2F)c(Cl)nc(-n2ccc(C(F)(F)F)n2)c1=O (centres unmarked) [compound 63],89,72,0,0,0,0,90,0,0,0,0,–
CCC(C)Cn1c(-c2c(F)cccc2F)c(Cl)nc(-n2nc(C)cc2C(F)(F)F)c1=O (centres unmarked) [compound 64],97,24,0,0,0,54,71,0,16,0,0,–
CCC(C)Cn1c(-c2c(F)cccc2F)c(Cl)nc(-n2ccc(Br)n2)c1=O (centres unmarked) [compound 65],98,83,0,33,0,99,100,0,0,0,0,–
